Tests used:
Format in all cases: in vivo, human
IL-6 = assay: Randomized clinical trial in CPB patients: IL-6 level by ELISA
Procedure: (§1) A randomized prospective clinical trial was performed. Thirty-four consecutive patients with an ejection fraction >30%, undergoing elective coronary artery bypass grafting were randomized into four groups. Groups A and B received taurolidine (250 mL 2% taurolidine) intravenously at induction through a central line. These patients also received two further doses of taurolidine at 12 hour intervals (2×250 mL 2% taurolidine/day) for the first 24 hours following surgery, but in group A crystalloid cardioplegia was used for myocardial protection and in group B blood cardioplegia was used. Groups C and D received saline vehicle controls while group C had crystalloid cardioplegia and group D received blood cardioplegia. Blood samples were taken pre-operatively, at the time of aortic unclamping, 2 hours, 6 hours and 24 hours post aortic unclamping. Neutrophil and monocyte respiratory burst, phagocytosis ability, CD11b and CD14 expression were assessed using flow cytometry. Plasma interleukins 6, 8 and 10 (IL-6, IL-8 and IL-10) and tumor necrosis factor α (TNF-α) were determined by Enzyme Linked Immuno Sorbent Assay. All the patients received the standard antibiotic prophylaxis for cardiac bypass surgery.
(§2) Patient selection was performed as follows. Patients undergoing elective coronary artery bypass grafting with an ejection fraction greater than or equal to 30%, no history of Diabetes mellitis and a normal chest x-ray were selected. Patients on ACE-inhibitors were not included in the study. The decision was made jointly by the consultant anesthetist and surgeon involved before inclusion in the study, and each patient was then randomized to drug or control. All the patients were nursed in the cardiac intensive care unit post operatively. Informed consent was sought from each patient before inclusion into the study.
(§3) Parameters 2-4 were assessed post aortic unclamping, 2 hours and 24 hours post-operatively.
(§4) Thirty-four patients were studied as described above.

IL-10 = assay: Randomized clinical trial in CPB patients: IL-10 level by ELISA
Procedure: as §1, §2, §3, §4

TNF-α = assay: Randomized clinical trial in CPB patients: circulating TNF-α by ELISA; settings: perioperative taurolidine
Procedure: as §1
(§5) Patient selection was performed as follows. […]
as §3

IL-8 = assay: Randomized clinical trial in CPB patients: circulating IL-8 by ELISA; settings: perioperative taurolidine
Procedure: as §1, §5, §3

[1] = test system: neutrophil and monocyte activity (respiratory burst, phagocytosis, CD11b, CD14); assay: Randomized clinical trial in CPB patients: neutrophil and monocyte activity by flow cytometry; settings: perioperative taurolidine
Procedure: as §1, §5, §3

[2] = test system: arrhythmia in CPB patients; assay: Arrhythmia in CPB patients during crystalloid cardioplegia; settings: of ten patients; crystalloid cardioplegia with taurolidine 2% solution (placebo: 8 of ten)
Source text: Ten patients underwent CPB using crystalloid cardioplegia with taurolidine 2% solution for myocardial protection. Another ten patients underwent CPB using crystalloid cardioplegia and a placebo for myocardial protection. Three of the patients treated with taurolidine experienced arrhythmia whereas 8 of the patients treated with placebo experienced arrhythmia.

[3] = 24 hours post aortic unclamping, crystalloid cardioplegia (Group A, n = 8), 250 mL 2% taurolidine i.v., mean ± s.d., *p < 0.05 vs. placebo
[4] = Group A vs. Group B, p<0.05 at 24 hours post aortic unclamping
[5] = crystalloid cardioplegia, Group A vs. Group C, 24 hour timepoint

## O=S1(=O)CCN(CN2CCS(=O)(=O)NC2)CN1 [Taurolidine, bis(1,1-dioxoperhydro-1,2,4-thiadiazin-4-yl)methane]
IL-6; [3]
  Serum IL-6 level: 8.0 ± 1.4* pg/mL
IL-6; [4]
  Interleukin-6, crystalloid vs. blood cardioplegia in taurolidine patients: significantly down-regulated
IL-6; blood cardioplegia, Group B vs. Group D
  Effect on interleukin-6 in combination with blood cardioplegia: No beneficial effect
IL-6; [5]
  Interleukin-6 vs. placebo (in words): significantly down-regulated
IL-10; [3]
  Serum IL-10 level: 28.2 ± 9.6* pg/mL
IL-10; [4]
  Interleukin-10, crystalloid vs. blood cardioplegia in taurolidine patients: significantly up-regulated
IL-10; [5]
  Interleukin-10 vs. placebo (in words): significantly up-regulated
TNF-α
  Effect on circulating TNF-α: did not appear to modify
IL-8
  Effect on circulating IL-8: did not appear to modify
[1]
  Effect on neutrophil or monocyte activity: did not appear to modify
[2]
  Number of patients who experienced arrhythmia: Three

— patent US6641571B2, “Reduction of postoperative complications of cardiopulmonary bypass (CPB) surgery” (Ed. Geistlich Soehne AG fuer Chemische Industrie, priority 2000, dated 2003)
